We go through 2 compounds from PMC6318021 (Structure (London, England : 1993), 2018).

This test addresses Nurr1 (nuclear receptor related 1 protein) (Homo sapiens, UniProt P43354). The test is described as follows: tryptophan fluorescence quenching. In kind it is binding.

Nurr1 (nuclear receptor related 1 protein), sequence (P43354 352-598): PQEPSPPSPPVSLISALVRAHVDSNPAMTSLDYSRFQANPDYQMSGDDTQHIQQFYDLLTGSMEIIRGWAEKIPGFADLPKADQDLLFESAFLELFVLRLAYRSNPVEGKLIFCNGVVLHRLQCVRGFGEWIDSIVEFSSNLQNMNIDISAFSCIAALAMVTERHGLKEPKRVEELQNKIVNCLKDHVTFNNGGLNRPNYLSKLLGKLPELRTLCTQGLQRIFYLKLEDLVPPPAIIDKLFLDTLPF

Turning to `CCCCCCCC/C=C\CCCCCCCC(=O)O` [OA, oleic acid], binding was characterised by a dissociation constant (Kd) of 59 ± 15 µM.

In the case of `CCCCC/C=C\C/C=C\CCCCCCCC(=O)O` [LA, linoleic acid], binding was characterised by a dissociation constant (Kd) of 101 ± 13 µM.
